Consider twelve compounds from ChEMBL document CHEMBL1201862, “PubChem BioAssay data set” (2004).

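Step 1: Grow cells in 96-well plates. Step 2: Expose to compound for 48 hours at 5 concentrations. Step 3: Interpolate endpoints linearly; if unreached, use highest concentration. At the GI50, growth is halved.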 Activity calls are given as the source filed them. No stated cut-off is given here; in the data, active = GI50 up to about 1.1 µM and inactive = higher.

Test systems include LOX IMVI; HCC 2998; HOP-92; MOLT-4; NCI-H522; SNB-19; SK-MEL-5; A549; M19-MEL; K562; SF-539; SR; NCI-H460; SK-OV-3; SN12C; OVCAR-4; OVCAR-8.
Common to all, as to test: DTP human tumour cell line panel, 48 h

On to `Cc1ccc(C)c(NC(=O)c2cc(-c3ccc([N+](=O)[O-])cc3)nc(N)n2)c1`, for which the GI50 with LOX IMVI, in the test with HCC 2998, in the test on HOP-92, in the test with MOLT-4, in the test with NCI-H522 and with SNB-19 was > 100 µM (inactive) in each case. Further, the GI50 in the test with SK-MEL-5, with A549, with M19-MEL, in the test with K562, in the test on SF-539 and in the test with SR was > 100 µM (inactive) throughout. For the same compound, the GI50 in the test with NCI-H460, in the test on SK-OV-3, in the test on SN12C, in the test on OVCAR-4 and with OVCAR-8 was > 100 µM (inactive) in each case.
On to `[N-]=[N+]=CC(=O)C1(C(=O)C=[N+]=[N-])CC1`, for which the GI50 in the test on LOX IMVI, in the test on HCC 2998, in the test on MOLT-4, with NCI-H522, in the test with SNB-19 and with SK-MEL-5 was > 100 µM (inactive) throughout. The GI50 in the test on A549, in the test on M19-MEL, in the test on K562, in the test with SF-539, in the test with SR and in the test with NCI-H460 was > 100 µM (inactive) each time. Further, the GI50 in the test with SK-OV-3, with SN12C, with OVCAR-4 and in the test on OVCAR-8 was > 100 µM (inactive) each time.
On to `C[C@]12CCC(=O)C=C1CC[C@@H]1[C@@H]2CC[C@]2(C)C(=O)NC(=O)C[C@@H]12`, for which the GI50 with LOX IMVI, in the test on HCC 2998, with HOP-92, in the test on MOLT-4, in the test on NCI-H522 and in the test with SNB-19 was > 100 µM (inactive) in each case. In addition, the GI50 in the test with SK-MEL-5, in the test with A549, in the test on M19-MEL, with K562, in the test on SF-539 and in the test on SR was > 100 µM (inactive) each time. Further, the GI50 with NCI-H460, in the test with SK-OV-3, in the test on SN12C, with OVCAR-4 and in the test on OVCAR-8 was > 100 µM (inactive) in each case.
On to `CCOC(=O)C(=Cc1ccc(C(=O)OC)cc1)C(=O)OCC`, for which the GI50 is 1.73 µM (inactive) with LOX IMVI; 4.06 µM (inactive) in the test on HCC 2998; 1.67 µM (inactive) in the test with HOP-92; 2.61 µM (inactive) in the test on MOLT-4; 1.33 µM (inactive) in the test with NCI-H522; 2.39 µM (inactive) with SNB-19. Moreover, the GI50 was 2.05 µM (inactive) with SK-MEL-5; 3.37 µM (inactive) with A549; 2.75 µM (inactive) with M19-MEL; 2.32 µM (inactive) in the test on K562; 1.67 µM (inactive) in the test with SF-539; 21.1 µM (inactive) with NCI-H460. Besides, the GI50 in the test with SK-OV-3 was 13.6 µM (inactive); with SN12C, 2.25 µM (inactive); in the test on OVCAR-4, 3.78 µM (inactive); with OVCAR-8, 2.98 µM (inactive).
`Nn1c(S)nnc1NNC(=O)C(=O)Nc1cc(Cl)c(Cl)cc1Cl`: the GI50 with LOX IMVI, with HCC 2998, in the test with HOP-92, in the test with NCI-H522, with SNB-19 and in the test on SK-MEL-5 was > 100 µM (inactive) each time. For the same compound, the GI50 with A549 was > 100 µM (inactive); in the test with M19-MEL, > 100 µM (inactive); with K562 it was 0.012 µM (active); in the test on SF-539, > 100 µM (inactive); in the test with NCI-H460, > 100 µM (inactive); with SK-OV-3, > 100 µM (inactive). For the same compound, the GI50 in the test on SN12C, in the test on OVCAR-4 and in the test with OVCAR-8 was > 100 µM (inactive) in each case.
For the compound `CC(C)C1CO[C@]2(C)CCC(=O)N12` (some centres undefined), the GI50 in the test on HOP-92, with MOLT-4, in the test with NCI-H522, in the test on SNB-19, in the test on SK-MEL-5 and in the test with A549 was > 100 µM (inactive) throughout. The GI50 in the test on M19-MEL, in the test on K562, with SF-539, in the test on SR, with NCI-H460 and in the test on SK-OV-3 was > 100 µM (inactive) each time. For the same compound, the GI50 in the test on SN12C, in the test with OVCAR-4 and in the test on OVCAR-8 was > 100 µM (inactive) in each case.
With `C/C(=N\NC(N)=O)C(CN1CCCCC1)C(c1ccccc1)c1c(O)c2ccccc2oc1=O` (centres undefined), the GI50 with LOX IMVI, with HCC 2998, in the test with MOLT-4, with NCI-H522, in the test on SNB-19 and in the test on SK-MEL-5 was > 100 µM (inactive) each time. Also, the GI50 with A549, with M19-MEL, in the test with K562, in the test on SF-539, in the test with SR and in the test with NCI-H460 was > 100 µM (inactive) in each case. For the same compound, the GI50 in the test on SK-OV-3, in the test on SN12C, in the test with OVCAR-4 and in the test on OVCAR-8 was > 100 µM (inactive) each time.
With `Cn1c(=O)c2[nH]cnc2n(CC(N)=O)c1=O`, the GI50 with HOP-92, in the test on MOLT-4, with NCI-H522, in the test on SNB-19, in the test with SK-MEL-5 and in the test on A549 was > 100 µM (inactive) throughout. Also, the GI50 in the test with M19-MEL, in the test on K562, in the test on SF-539, in the test with SR, in the test on NCI-H460 and in the test on SK-OV-3 was > 100 µM (inactive) throughout. Besides, the GI50 in the test with SN12C and in the test with OVCAR-8 was > 100 µM (inactive) in each case.
Regarding `Cc1cc(=O)oc2cc(OCc3nc4ccccc4c(=O)n3-c3ccccc3)ccc12`, the GI50 in the test with LOX IMVI is > 100 µM (inactive); in the test on HCC 2998, > 100 µM (inactive); in the test on HOP-92, 28.1 µM (inactive); in the test with MOLT-4, > 100 µM (inactive); in the test with NCI-H522 it was > 100 µM (inactive); in the test with SNB-19 it was 27.5 µM (inactive). In addition, the GI50 with SK-MEL-5, with A549, in the test with M19-MEL, in the test with K562, with SF-539 and in the test with NCI-H460 was > 100 µM (inactive) throughout. Moreover, the GI50 is 53.6 µM (inactive) in the test on SK-OV-3, > 100 µM (inactive) in the test on SN12C, > 100 µM (inactive) in the test with OVCAR-4 and 45.1 µM (inactive) in the test with OVCAR-8.
With `O=C1Nc2cc(Cl)ccc2N=CC1NC(=O)C(c1ccccc1)c1ccccc1Cl` (centres undefined), the GI50 with LOX IMVI, with HCC 2998, with HOP-92, in the test on MOLT-4, in the test with NCI-H522 and with SNB-19 was > 100 µM (inactive) each time. The GI50 was > 100 µM (inactive) in the test with SK-MEL-5; > 100 µM (inactive) with A549; > 100 µM (inactive) in the test with M19-MEL; > 100 µM (inactive) in the test on K562; > 100 µM (inactive) in the test on SF-539; 57.9 µM (inactive) in the test with NCI-H460. For the same compound, the GI50 with SK-OV-3, in the test with SN12C, in the test on OVCAR-4 and in the test with OVCAR-8 was > 100 µM (inactive) each time.
Take `O=C(CC(=O)Nc1cccc(Cl)c1)NNCC(=O)Nc1nnc(-c2ccccc2)s1`: the GI50 in the test with LOX IMVI is 43.2 µM (inactive); in the test with HCC 2998, > 100 µM (inactive); with MOLT-4 it was 34.9 µM (inactive); with NCI-H522, 64.1 µM (inactive); with SNB-19, 36 µM (inactive); in the test on SK-MEL-5, 45.8 µM (inactive). For the same compound, the GI50 was > 100 µM (inactive) with A549; > 100 µM (inactive) in the test on M19-MEL; 27.4 µM (inactive) in the test with K562; > 100 µM (inactive) in the test with SF-539; 41.2 µM (inactive) in the test with SR; 11.1 µM (inactive) in the test with NCI-H460. Further, the GI50 is 26.4 µM (inactive) in the test on SK-OV-3, > 100 µM (inactive) with SN12C, 2.46 µM (inactive) with OVCAR-4 and 20.8 µM (inactive) with OVCAR-8.
Turning to `COC(=O)c1ccc(OCc2ccc3oc(=O)c(-c4ccccc4)nc3c2)cc1`, the GI50 was > 100 µM (inactive) in the test with LOX IMVI; > 100 µM (inactive) in the test with HCC 2998; 22.9 µM (inactive) in the test with MOLT-4; 33.6 µM (inactive) in the test on NCI-H522; > 100 µM (inactive) in the test with SNB-19; > 100 µM (inactive) with SK-MEL-5. The GI50 with A549 was > 100 µM (inactive); with M19-MEL, > 100 µM (inactive); in the test on K562 it was 27.9 µM (inactive); in the test with SF-539, > 100 µM (inactive); in the test with SR, 30.8 µM (inactive); in the test with NCI-H460, > 100 µM (inactive). In addition, the GI50 with SN12C, in the test on OVCAR-4 and with OVCAR-8 was > 100 µM (inactive) throughout.

By GI50 is commonly meant the concentration that inhibits growth by half.
